Our source for the IC50 and CC50 values is paper PMC12242654, “Design, Synthesis, and In Vitro Evaluation of the Leishmanicidal Activity of New Aromatic Symmetrical 1,4-Disubstituted 1,2,3-Bistriazoles” (ACS Omega, 2025).

Like-named read-outs stand apart in the source and are kept apart here.

Data set [1] concerns promastigote forms of L. amazonensis. Kind of data set: Leishmanicidal activity against promastigote forms of L. amazonensis (resazurin). It counts as cell-based, Leishmania amazonensis. As to conditions: L. amazonensis promastigotes, 72 h, read-out: IC50 ± SD promastigote. On the procedure:
Promastigotes of L. amazonensis (MHOM/BR/71973/M2269) were grown on 24-well plates in Schneider’s Drosophila medium (Sigma, USA) supplemented with 10.0% (v/v) heat-inactivated fetal bovine serum and 1.0% penicillin (10000 UI mL^–1)/streptomycin (10.0 mg mL^–1) (Sigma, USA). Cells were harvested in the log phase, suspended in a fresh medium, counted in Neubauer’s chamber, and adjusted to a concentration of 1 × 10^6 cells mL^–1 using 24-well plates. The compounds were added to promastigote cultures (1 × 10^6 cells mL^–1) in the range of 0.10–40.00 μg mL^–1, solubilized in dimethyl sulfoxide (DMSO) (0.6%, v/v in all wells), and incubated at 25 °C. After 72 h of incubation, resazurin was used to detect cellular metabolic activity for the determination of 50.0% inhibitory growth concentration (IC50-promastigote). All tests were performed in triplicate at three different times, and amphotericin B (Sigma) was used as the reference drug.

Data set [2] is described as follows: Murine cytotoxicity by MTT method. In kind it is cell-based. Particulars: mouse; murine peritoneal macrophages, MTT; read-out: murine macrophage CC50 ± SD. On the procedure:
(§1) Murine cytotoxicity was assessed by the 3-(4,5-dimethylthiazol-2-yl)-2,5-diphenyltetrazolium bromide (MTT) method using murine peritoneal macrophages to determine the CC50. For this purpose, murine peritoneal macrophages were maintained in RPMI 1640 medium at 37 °C and 5% CO2, arranged in 96-well plates at a ratio of […], where the compounds to be evaluated were added at concentrations of 500, 250, 125, 62.5, 31.25, 15.625, 7.8125, and 3.90 μg mL^–1 and incubated for 24, 48, and 72 h. After incubation, 10 μL of MTT (at a concentration of 5 mg mL^–1) was added per well, with a further 4 h incubation. The cells were lysed with dimethyl sulfoxide (DMSO) and evaluated in a Shimadzu UV/vis spectrophotometer (double beam, model 2550) at 570 nm to determine the CC50 compared to the control without the addition of compounds or drugs. , The optical density obtained was then converted to the percentage of inhibition using eq so that the CC50 could then be determined by regression analysis of the data. %inhibition=[(DOcontrol−DOcompound)/DOcontrol]×100 1
(§2) The percentage of viable cells was calculated considering the cell culture control (medium + cells + DMSO = 0.6% v/v).
Background: Tetrazolium assays rely on reduction of a dye to a coloured formazan, in cell work by metabolically active cells.

Data set [3] concerns amastigote forms of L. amazonensis. Put plainly: Leishmanicidal activity against intracellular amastigote forms of L. amazonensis in murine peritoneal macrophages. In kind it is cell-based. As to conditions: Leishmania amazonensis, Peritoneal macrophage; intracellular amastigotes in murine peritoneal macrophages, 72 h, Giemsa; read-out: IC50 ± SD amastigote. On the procedure:
To evaluate the leishmanicidal activity in amastigotes, murine peritoneal macrophages were used and maintained in RPMI-1640 medium at 37 °C and 5% CO2 in 24-well plates. After 24 h, the nonadherent macrophages were removed, and these cells were infected with Leishmania (L.) amazonensis promastigotes in the stationary phase of the proliferation curve at a ratio of 10:1. The day after infection, the noninternalized parasites were removed, and the compounds to be evaluated were added at concentrations of 40, 10, 5, and 0.1 μg mL^–1 and incubated for 72 h at 37 °C and 5% CO2; they were then fixed in methanol and stained with 10% Giemsa (MERCK) for subsequent analysis by light microscopy. To assess the effect of the compounds, the number of amastigotes/macrophages and the number of infected macrophages were evaluated. The percentage of infected cells was considered to illustrate the results since these are expressed as CI50-amastigote. ,

The nature of data set [4]: Cytotoxicity on human fibroblast culture (sulforodamine B (SRB) test). Particulars: read-out: human fibroblasts CC50 ± SD. It counts as cell-based.
The subject of data set [5] is murine peritoneal macrophages. Put plainly: Murine cytotoxicity by MTT method. In kind it is cell-based. How it is done:
as §1, §2

On to `O=[N+]([O-])c1ccc(-c2cn(CC(O)Cn3cc(-c4ccc([N+](=O)[O-])cc4)nn3)nn2)cc1` [8b, 1,3-Bis(4-(4-nitrophenyl)-1H-1,2,3-triazol-1-yl)propan-2-ol], for which the IC50 in data set [1] (Leishmania amazonensis) amounted to 48.4 ± 1.3 µM. Further, the CC50 in data set [2] was 305 ± 7.84 µM.

As for `Cc1ccc(-c2cn(CC(O)Cn3cc(-c4ccc(C)cc4)nn3)nn2)cc1` [8c, 1,3-Bis(4-(p-tolyl)-1H-1,2,3-triazol-1-yl)propan-2-ol], the IC50 in data set [1] (Leishmania amazonensis) was 116 ± 2.61 µM. Also, the CC50 in data set [2] worked out at 282.2 ± 1.65 µM.

With `OC(Cn1cc(C(=NNc2nc3ccccc3s2)c2ccccc2)nn1)Cn1cc(C(=NNc2nc3ccccc3s2)c2ccccc2)nn1` (centres unmarked) [12c, 1,3-Bis(4-((2-(benzo[d]thiazol-2-yl)hydrazineylidene)(phenyl)methyl)-1H-1,2,3-triazol-1-yl)propan-2-ol], in data set [1] (Leishmania amazonensis), the IC50 is 19.2 ± 1.4 µM. For the same molecule, the CC50 in data set [2] was found to be 51.3 ± 8.57 µM.

As for `C[C@@H]1[C@H](O)[C@@H](C)/C=C/C=C/C=C/C=C/C=C/C=C/C=C/[C@H](O[C@@H]2O[C@H](C)[C@@H](O)[C@H](N)[C@@H]2O)C[C@@H]2O[C@](O)(C[C@@H](O)C[C@@H](O)[C@H](O)CC[C@@H](O)C[C@@H](O)CC(=O)O[C@H]1C)C[C@H](O)[C@H]2C(=O)O` [amph B, amphotericin B, reference compound], the IC50 in data set [3] was determined as 1.9 ± 0.07 µM; in data set [1] (Leishmania amazonensis), 1.4 ± 0.04 µM. Moreover, the results for the CC50 in data set [4] and in data set [2] were 22.95 ± 0.1 µM and 27.1 ± 3.19 µM, respectively.

For the molecule `OC(c1ccccc1)c1cn(Cc2ccccc2)nn1` (centres unmarked) [compound 4], the IC50 in data set [1] (Leishmania amazonensis) amounted to 42.8 ± 2.66 µM. Moreover, the CC50 in data set [2] is 322 ± 10.4 µM.

For the molecule `OC(Cn1cc(C(O)c2ccccc2)nn1)Cn1cc(C(O)c2ccccc2)nn1` (centres unmarked) [compound 9, ((2-Hydroxypropane-1,3-diyl)bis(1H-1,2,3-triazole-1,4-diyl))bis(phenylmethanol)], the IC50 in data set [1] (Leishmania amazonensis) was 62.3 ± 3.29 µM. Further, the CC50 in data set [2] was determined as 144.3 ± 0.94 µM.

Consider `O=C(c1ccccc1)c1cn(CC(O)Cn2cc(C(=O)c3ccccc3)nn2)nn1` [compound 10, ((2-Hydroxypropane-1,3-diyl)bis(1H-1,2,3-triazole-1,4-diyl))bis(phenylmethanone)], for which the IC50 in data set [3] is 68.4 ± 2.61 µM; in data set [1] (Leishmania amazonensis), 44.1 ± 2.36 µM. Moreover, the CC50 turned out to be 568.1 ± 2.58 µM in data set [4] and 383.9 ± 3.21 µM in data set [2].

For “N′,N‴-(((2-Hydroxypropane-1,3-diyl)bis(1H-1,2,3-triazole-1,4-diyl))bis(phenylmethaneylylidene))di(benzohydrazide) [12b]”, the IC50 in data set [1] was 34.46 ± 0.28 µM. The same molecule registered a CC50 in data set [5] of 118 ± 17.1 µM.

In general, IC50 refers to the concentration needed to halve the response being measured. Usually CC50 stands for the concentration giving 50% cytotoxicity.
